The results in this text go back to patent US11820804B2, “Peptide-based inhibitors of growth hormone action and methods of use thereof” (Ohio University, priority 2018, dated 2023).

Common to all, as to assay type: cell-based
Assay [1] relates to tyrosine pSTAT5 levels following hGH stimulation. Briefly: tyrosine pSTAT5 levels following hGH stimulation (cells not named at the place). The conditions noted are these: general statement, cell line not named. From the text: A hallmark of hGH action is rapid tyrosine phosphorylation of the STAT5(A and B) transcription factor protein following binding of hGH to hGHR and transactivation of hGHR associated JAK2. The phosphorylation event is rapid (minutes following hGH addition) and has been used as a readout of hGHR activation. Inhibitors of hGH action blocks hGH-hGHR mediated STAT5 tyrosine phosphorylation in many cells, including IM9, SK-MEL-28, mouse fibroblasts, and other cells which express hGHR.
(§1) Human malignant melanoma cell lines—SK-MEL-28, SK-MEL-30, human lymphoblast IM9 cells, mouse fibroblast L cells were obtained from American Type Culture Collection (ATCC; Manassas, Va.). SK-MEL-28 were grown and maintained in EMEM media (ATCC), while IM9 and L cells were grown in RPMI-1640 (ATCC) and DMEM (ATCC) respectively, as indicated by ATCC protocols. Complete growth media was supplemented with 10% fetal bovine serum (FBS; ATCC) and 1×antibiotic-antimycotic (Thermo Fisher Scientific, Waltham, Mass.). Cells were grown at 37° C./5% CO2 in a humidified incubator. Media was replaced every 48 hours. No hGH was present in the media or added externally unless specifically mentioned. […]

The subject of assay [2] is hGH mediated STAT5 phosphorylation in SK-MEL-28 human melanoma cells. Kind of assay: Western blot of hGH mediated STAT5 phosphorylation in SK-MEL-28 cells. The settings on record: co-treated with 2.5 nM recombinant hGH, peptide at 25 and 250 nM, 20 minutes. The method, then:
as §1, with “mentioned. For hGH treatment of adherent cells, 12-16 hours after seeding the cells were serum-starved for 4 hours in serum free growth media and hGH (or PBS as control) was added at the mentioned concentrations (50 ng/mL=2.5 nM or other concentrations).” for “mentioned.”
(§2) Western blotting was performed following established lab procedures. […] Membranes were then washed and treated with West Femto Chemiluminiscence® detection reagents (Thermo Fisher Scientific) and the chemiluminiscence signal was captured using a GelDoc® (Biorad) fluorescence reader. Densitometry analysis of the blots was done by measured band-intensity from the area-under-curve using ImageJ® software. […]

Assay [3] relates to hGH mediated STAT5 phosphorylation in IM9 human lymphoblast cells. Kind of assay: Western blot of hGH mediated STAT5 phosphorylation in IM9 cells. The settings on record: co-treated with 2.5 nM recombinant hGH, peptide at 25 and 250 nM, 20 minutes. The method, then: as §1, with “mentioned. For hGH treatment of adherent cells, 12-16 hours after seeding the cells were serum-starved for 4 hours in serum free growth media and hGH (or PBS as control) was added at the mentioned concentrations (50 ng/mL=2.5 nM or other concentrations).” for “mentioned.”
as §2
A general note: Immunoblotting shows a protein as a band on a membrane.

In assay [4] the test system is hGH mediated STAT5 phosphorylation in L mouse fibroblasts cells. Briefly: Western blot of hGH mediated STAT5 phosphorylation in L cells. The settings on record: L mouse fibroblast cells, co-treated with 2.5 nM recombinant hGH, peptide at 25 and 250 nM, 20 minutes. The method, then: as §1, with “mentioned. For hGH treatment of adherent cells, 12-16 hours after seeding the cells were serum-starved for 4 hours in serum free growth media and hGH (or PBS as control) was added at the mentioned concentrations (50 ng/mL=2.5 nM or other concentrations).” for “mentioned.”
as §2

“Tyr Ile Pro Lys Glu Gln Lys Tyr Ser Phe Leu Gln Asn Pro Gln Thr (YIPKEQKYSFLQNPQT; listed as Homo sapiens) [S1H, 16-amino acid peptide mimicking hGH site 1 helix, residues 36-51]”: in assay [1], the “tyrosine pSTAT5 levels following hGH stimulation” value is recorded as “robustly blocks tyrosine pSTAT5 levels following hGH stimulation, in a dose-dependent manner”. The “hGH mediated STAT5 phosphorylation (pSTAT5 levels)” value in assay [2] is listed as “downregulates hGH mediated STAT5 phosphorylation”. The “hGH mediated STAT5 phosphorylation (phospho-STAT5 levels)” value in assay [3] and in assay [4] was “downregulates hGH mediated STAT5 phosphorylation” each time.
